Measured values as given in patent US12668600B2 (Kumquat Biosciences Inc., priority 2023, dated 2026).

Tests used:
Type in all cases: biochemical
KRAS G12D = target: T1, KRAS G12D (Homo sapiens, UniProt P01116, G12D); test: HTRF KRAS-SOS1 interaction assay, KRAS G12D; conditions: binned ≤2 μM / >2 μM, read-out: Inhibition of KRAS G12D (IC50)
T1 construct: made in house; host or cells: E. coli, e.g. BL21 (DE3)
Method in brief: (§1)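 Read-out: HTRF ratio 665/620 nm after ≥10 min incubation of compound with GST-KRAS/anti-GST-Eu and His-hSOS1/anti-6His-XL665. Duplicate dose series, 10 μM down to 0.01 μM. Buffer HEPES pH 7.4, NaCl, DTT, BSA, Igepal.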

KRAS G12S = target: T2, KRAS G12S (Homo sapiens, UniProt P01116, G12S); test: HTRF KRAS-SOS1 interaction assay, KRAS G12S; conditions: binned ≤2 μM / >2 μM, read-out: Inhibition of KRAS G12S (IC50)
T2 construct: made in house; host or cells: E. coli, e.g. BL21 (DE3)
Method in brief: as §1

KRAS WT = target: T3, KRAS WT (Homo sapiens, UniProt P01116); test: HTRF KRAS-SOS1 interaction assay, wildtype KRAS; conditions: binned ≤2 μM / >2 μM, read-out: Inhibition of KRAS WT (IC50)
T3 construct: made in house; host or cells: E. coli, e.g. BL21 (DE3)
Method in brief: as §1

KRAS G12V = target: T4, KRAS G12V (Homo sapiens, UniProt P01116, G12V); test: HTRF KRAS-SOS1 interaction assay, KRAS G12V; conditions: binned ≤2 μM / >2 μM, read-out: Inhibition of KRAS G12V (IC50)
T4 construct: made in house; host or cells: E. coli, e.g. BL21 (DE3)
Method in brief: as §1

Measured: IC50

T4 sequence (P01116 1-188 isoform P01116-2 G12V): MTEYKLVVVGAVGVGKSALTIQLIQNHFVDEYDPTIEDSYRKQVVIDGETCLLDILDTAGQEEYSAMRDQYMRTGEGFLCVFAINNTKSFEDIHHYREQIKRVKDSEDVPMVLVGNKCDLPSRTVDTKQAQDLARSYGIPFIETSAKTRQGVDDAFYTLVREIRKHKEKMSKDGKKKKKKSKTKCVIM
T2 sequence (P01116 1-188 isoform P01116-2 G12S): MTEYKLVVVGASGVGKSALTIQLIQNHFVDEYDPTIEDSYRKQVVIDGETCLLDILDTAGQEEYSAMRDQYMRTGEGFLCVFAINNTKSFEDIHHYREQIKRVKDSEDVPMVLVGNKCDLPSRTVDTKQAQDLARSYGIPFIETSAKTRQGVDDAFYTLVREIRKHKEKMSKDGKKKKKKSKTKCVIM
T3 sequence (P01116 1-188 isoform P01116-2): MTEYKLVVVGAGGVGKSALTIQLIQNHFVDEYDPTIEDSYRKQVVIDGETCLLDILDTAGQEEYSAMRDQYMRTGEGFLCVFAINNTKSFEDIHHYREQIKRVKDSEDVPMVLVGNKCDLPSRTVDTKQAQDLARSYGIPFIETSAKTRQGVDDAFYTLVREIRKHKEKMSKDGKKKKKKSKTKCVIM
T1 sequence (P01116 1-188 isoform P01116-2 G12D): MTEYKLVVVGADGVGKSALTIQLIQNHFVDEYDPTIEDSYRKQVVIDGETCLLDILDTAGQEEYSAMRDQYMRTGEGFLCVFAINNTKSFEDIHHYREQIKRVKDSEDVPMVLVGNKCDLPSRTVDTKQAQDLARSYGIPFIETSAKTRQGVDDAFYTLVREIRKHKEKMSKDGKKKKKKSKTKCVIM

CO[C@H]1CCN(C)[C@@H]1[C@H](C)Oc1nc2c3c(c(C(F)(F)F)c(-c4ccc(F)c5sc(N)c(C#N)c45)c(F)c3n1)OCCN2[C@H](CCC(F)(F)F)c1cccnc1N [Compound 649, 2-amino-4-(4-((R)-1-(2-aminopyridin-3-yl)-4,4,4-trifluorobutyl)-10-fluoro-2-((S)-1-((2R,3S)-3-methoxy-1-methylpyrrolidin-2-yl)ethoxy)-8-(trifluoromethyl)-5,6-dihydro-4H-[1,4]oxazepino[5,6,7-de]quinazolin-9-yl)-7-fluorobenzo[b]thiophene-3-carbonitrile]
≤ 2000 nM: all assays above

N#Cc1c(N)sc2c(F)ccc(-c3c(C(F)(F)F)c4c5c(nc(OC[C@@]67CCCN6C[C@@]6(CC6(F)F)C7)nc5c3F)N([C@H](CCC3CCOCC3)c3cccnc3N)CCO4)c12 [Compound 650, 2-amino-4-(4-((R)-1-(2-aminopyridin-3-yl)-3-(tetrahydro-2H-pyran-4-yl)propyl)-2-(((1S,7a′S)-2,2-difluorodihydro-1′H,3′H-spiro[cyclopropane-1,2′-pyrrolizin]-7a′(5′H)-yl)methoxy)-10-fluoro-8-(trifluoromethyl)-5,6-dihydro-4H-[1,4]oxazepino[5,6,7-de]quinazolin-9-yl)-7-fluorobenzo[b]thiophene-3-carbonitrile]
≤ 2000 nM: all assays above

C[C@H](c1cc(C2CC2)cnc1N)N1CCOc2c(C(F)(F)F)c(-c3ccc(F)c4sc(N)c(C#N)c34)c(F)c3nc(OC[C@@]45CCCN4C[C@H](F)C5)nc1c23 [Compound 654, 2-amino-4-(4-((R)-1-(2-amino-5-cyclopropylpyridin-3-yl)ethyl)-10-fluoro-2-(((2R,7aS)-2-fluorotetrahydro-1H-pyrrolizin-7a(5H)-yl)methoxy)-8-(trifluoromethyl)-5,6-dihydro-4H-[1,4]oxazepino[5,6,7-de]quinazolin-9-yl)-7-fluorobenzo[b]thiophene-3-carbonitrile]
≤ 2000 nM: all assays above

CC(=O)N1CCC(C[C@H](c2cccnc2N)N2CCOc3c(C(F)(F)F)c(-c4ccc(F)c5sc(N)c(C#N)c45)c(F)c4nc(OC[C@@]56CCCN5C[C@H](F)C6)nc2c34)CC1 [Compound 658, 4-(4-((R)-2-(1-acetylpiperidin-4-yl)-1-(2-aminopyridin-3-yl)ethyl)-10-fluoro-2-(((2R,7aS)-2-fluorotetrahydro-1H-pyrrolizin-7a(5H)-yl)methoxy)-8-(trifluoromethyl)-5,6-dihydro-4H-[1,4]oxazepino[5,6,7-de]quinazolin-9-yl)-2-amino-7-fluorobenzo[b]thiophene-3-carbonitrile]
≤ 2000 nM: all assays above

CO[C@H]1CCN(C)[C@@H]1[C@H](C)Oc1nc2c3c(c(C(F)(F)F)c(-c4ccc(F)c5sc(N)c(C#N)c45)c(F)c3n1)OCCN2[C@H](C)c1cccnc1N [Compound 665, 2-amino-4-(4-((R)-1-(2-aminopyridin-3-yl)ethyl)-10-fluoro-2-((S)-1-((2R,3S)-3-methoxy-1-methylpyrrolidin-2-yl)ethoxy)-8-(trifluoromethyl)-5,6-dihydro-4H-[1,4]oxazepino[5,6,7-de]quinazolin-9-yl)-7-fluorobenzo[b]thiophene-3-carbonitrile]
≤ 2000 nM: all assays above

N#Cc1c(N)sc2c(F)ccc(-c3c(C(F)(F)F)c4c5c(nc(OC[C@@]67CCCN6CC(=C(F)F)C7)nc5c3F)N([C@H](CCC(F)(F)F)c3cccnc3N)CCO4)c12 [Compound 666, 2-amino-4-(4-((R)-1-(2-aminopyridin-3-yl)-4,4,4-trifluorobutyl)-2-(((S)-2-(difluoromethylene)tetrahydro-1H-pyrrolizin-7a(5H)-yl)methoxy)-10-fluoro-8-(trifluoromethyl)-5,6-dihydro-4H-[1,4]oxazepino[5,6,7-de]quinazolin-9-yl)-7-fluorobenzo[b]thiophene-3-carbonitrile]
≤ 2000 nM: all assays above

CO[C@H]1CCN(C)[C@@H]1[C@H](C)Oc1nc2c3c(c(C(F)(F)F)c(-c4ccc(F)c5sc(N)c(C#N)c45)c(F)c3n1)OCCN2[C@H](C)c1cc(Cl)cnc1N [Compound 667, 2-amino-4-(4-((R)-1-(2-amino-5-chloropyridin-3-yl)ethyl)-10-fluoro-2-((S)-1-((2R,3S)-3-methoxy-1-methylpyrrolidin-2-yl)ethoxy)-8-(trifluoromethyl)-5,6-dihydro-4H-[1,4]oxazepino[5,6,7-de]quinazolin-9-yl)-7-fluorobenzo[b]thiophene-3-carbonitrile]
≤ 2000 nM: all assays above

CO[C@H]1CCN(C)[C@@H]1COc1nc2c3c(c(C(F)(F)F)c(-c4ccc(F)c5sc(N)c(C#N)c45)c(F)c3n1)OCCN2[C@H](C)c1cccnc1N [Compound 673, 2-amino-4-(4-((R)-1-(2-aminopyridin-3-yl)ethyl)-10-fluoro-2-(((2R,3S)-3-methoxy-1-methylpyrrolidin-2-yl)methoxy)-8-(trifluoromethyl)-5,6-dihydro-4H-[1,4]oxazepino[5,6,7-de]quinazolin-9-yl)-7-fluorobenzo[b]thiophene-3-carbonitrile]
≤ 2000 nM: all assays above

C[C@H](c1cc(F)cnc1N)N1CCOc2c(C(F)(F)F)c(-c3ccc(F)c4sc(N)c(C#N)c34)c(F)c3nc(OC[C@@]45CCCN4CC(=C(F)F)C5)nc1c23 [Compound 675, 2-amino-4-(4-((R)-1-(2-amino-5-fluoropyridin-3-yl)ethyl)-2-(((S)-2-(difluoromethylene)tetrahydro-1H-pyrrolizin-7a(5H)-yl)methoxy)-10-fluoro-8-(trifluoromethyl)-5,6-dihydro-4H-[1,4]oxazepino[5,6,7-de]quinazolin-9-yl)-7-fluorobenzo[b]thiophene-3-carbonitrile]
≤ 2000 nM: all assays above

N#Cc1c(N)sc2c(F)ccc(-c3c(Cl)c4c5c(nc(OC[C@@]67CCCN6C[C@H](F)C7)nc5c3F)N([C@H](/C=C/C3CC3)c3cccnc3N)CCO4)c12 [Compound 676, 2-amino-4-(4-((R,E)-1-(2-aminopyridin-3-yl)-3-cyclopropylallyl)-8-chloro-10-fluoro-2-(((2R,7aS)-2-fluorotetrahydro-1H-pyrrolizin-7a(5H)-yl)methoxy)-5,6-dihydro-4H-[1,4]oxazepino[5,6,7-de]quinazolin-9-yl)-7-fluorobenzo[b]thiophene-3-carbonitrile]
≤ 2000 nM: all assays above

C[C@H](c1cc(Cl)cnc1N)N1CCOc2c(C(F)(F)F)c(-c3ccc(F)c4sc(N)c(C#N)c34)c(F)c3nc(OCC4(CN5CCC6(CC5)CC6(F)F)CC4)nc1c23 [Compound 679, 2-amino-4-(4-((R)-1-(2-amino-5-chloropyridin-3-yl)ethyl)-2-((1-((1,1-difluoro-6-azaspiro[2.5]octan-6-yl)methyl)cyclopropyl)methoxy)-10-fluoro-8-(trifluoromethyl)-5,6-dihydro-4H-[1,4]oxazepino[5,6,7-de]quinazolin-9-yl)-7-fluorobenzo[b]thiophene-3-carbonitrile]
≤ 2000 nM: all assays above

C=C1CN2CCC[C@@]2(COc2nc3c4c(c(C(F)(F)F)c(-c5ccc(F)c6sc(N)c(C#N)c56)c(F)c4n2)OCCN3[C@H](C)c2cncnc2N)C1 [Compound 680, 2-amino-4-(4-((R)-1-(4-aminopyrimidin-5-yl)ethyl)-10-fluoro-2-(((S)-2-methylenetetrahydro-1H-pyrrolizin-7a(5H)-yl)methoxy)-8-(trifluoromethyl)-5,6-dihydro-4H-[1,4]oxazepino[5,6,7-de]quinazolin-9-yl)-7-fluorobenzo[b]thiophene-3-carbonitrile]
≤ 2000 nM: all assays above
